molecular target: 3',5'-cyclic-AMP phosphodiesterase 4B (Homo sapiens) (UniProt Q07343); test: Inhibition of PDE4B (unknown origin) using FAM-cAMP as substrate at 10 uM after 60 min by fluorescence polarization assay
Sequence (Q07343 whole entry): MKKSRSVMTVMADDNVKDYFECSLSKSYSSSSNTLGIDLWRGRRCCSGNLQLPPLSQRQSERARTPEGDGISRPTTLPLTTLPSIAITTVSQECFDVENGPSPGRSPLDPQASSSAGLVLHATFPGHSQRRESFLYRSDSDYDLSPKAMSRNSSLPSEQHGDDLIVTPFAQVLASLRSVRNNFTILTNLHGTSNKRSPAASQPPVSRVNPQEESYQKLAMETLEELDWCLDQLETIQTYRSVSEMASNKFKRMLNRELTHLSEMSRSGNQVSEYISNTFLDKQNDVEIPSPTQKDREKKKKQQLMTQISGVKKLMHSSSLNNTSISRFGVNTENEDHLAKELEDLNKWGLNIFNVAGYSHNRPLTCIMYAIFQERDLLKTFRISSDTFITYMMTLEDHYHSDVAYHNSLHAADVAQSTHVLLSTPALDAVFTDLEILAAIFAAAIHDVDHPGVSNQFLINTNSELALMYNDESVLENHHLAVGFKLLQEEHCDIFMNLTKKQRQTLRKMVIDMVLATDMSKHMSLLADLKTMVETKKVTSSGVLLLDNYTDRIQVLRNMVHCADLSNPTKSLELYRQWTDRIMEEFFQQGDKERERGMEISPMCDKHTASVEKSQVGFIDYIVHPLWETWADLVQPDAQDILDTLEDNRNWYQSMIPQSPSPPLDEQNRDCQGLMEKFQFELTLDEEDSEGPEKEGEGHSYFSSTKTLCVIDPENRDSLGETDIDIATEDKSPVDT

| inhibition [%] | SMILES |
| --- | --- |
| 11 | CCCCn1c(=O)c2ccccc2n(CCCN2CCCCC2)c1=O |
| 100 | CCCCn1c(=O)c2ccccc2n(CCCN2CCOCC2)c1=O |
| 13 | CCCCn1c(=O)c2ccccc2n(CCCN2CCN(c3ccccc3)CC2)c1=O |
| 56 | CCCCn1c(=O)c2ccccc2n(Cc2ccccc2)c1=O |
| 25 | CCCCn1c(=O)c2ccccc2n(CCN2CCN(c3ccccc3)CC2)c1=O |

Continued, compound first:

| SMILES | inhibition [%] |
| --- | --- |
| CCCCn1c(=O)c2ccccc2n(CCN(CC)CC)c1=O | 8 |
| CCCCn1c(=O)c2ccccc2n(CCN2CCCCC2)c1=O | 11 |
| CCCCn1c(=O)c2ccccc2n(CC(=O)c2ccccc2)c1=O | 22 |
| CCCCn1c(=O)c2ccccc2n(CCN2CCOCC2)c1=O | 17 |
| CCCCn1c(=O)c2ccccc2n(CCCN(CC)CC)c1=O | 9 |
| CCCCn1c(=O)c2ccccc2n(CC(=O)c2ccc(Cl)cc2)c1=O | 8 |

— ChEMBL document CHEMBL3046068, “Design, synthesis, and biological activity of certain quinazolinedione derivatives as potent phosphodiestrase4 inhibitors” (Med Chem Res, 2012)
